# Literature values in article PMC9305358 (The Journal of Biological Chemistry, 2022).
# Like-named read-outs stand apart in the source and are kept apart here.
# How the values were obtained:
# [1] = system: ClpC1; settings: cited from earlier work
# [2] = system: ClpC1 NTD; settings: crystal structure pdb6PBS, ref [25]; cited from earlier work
# [3] = system: Mtb cells; settings: ref [19], [20], [21], [22]; cited from earlier work
Substance,"effect on ClpC1 ATPase activity ([1]; ref [20], [21])",binding stoichiometry/mode at ClpC1 NTD [2],toxicity to Mtb cells [3],effect on ClpC1 ATPase activity ([1]; ref [22])
ecumicin,increase ClpC1 ATPase activity,two ecumicin peptides bind to the NTD,highly toxic to Mtb cells,
lassomycin,increase ClpC1 ATPase activity,,highly toxic to Mtb cells,
rufomycin,,,highly toxic to Mtb cells,shows no impact
